From PMC12769565, “Design, synthesis and biological activity of glycoconjugated ADAMTS5 exosite inhibitors: applications in osteoarthritis and ovarian cancer models” (Scientific Reports, 2025)

Assays:
Type in all cases: biochemical
ADAMTS4 [1] = target: T1, ADAMTS4 (Homo sapiens, UniProt O75173); assay: QF peptide cleavage assay (peptidolytic activity); conditions: compared to DMSO control
T1 construct: Human recombinant full-length FLAG-tagged ADAMTS4 and ADAMTS5 were expressed in HEK293T cells; FLAG; made in house; host or cells: HEK293T cells
T1 sequence (O75173 213-837): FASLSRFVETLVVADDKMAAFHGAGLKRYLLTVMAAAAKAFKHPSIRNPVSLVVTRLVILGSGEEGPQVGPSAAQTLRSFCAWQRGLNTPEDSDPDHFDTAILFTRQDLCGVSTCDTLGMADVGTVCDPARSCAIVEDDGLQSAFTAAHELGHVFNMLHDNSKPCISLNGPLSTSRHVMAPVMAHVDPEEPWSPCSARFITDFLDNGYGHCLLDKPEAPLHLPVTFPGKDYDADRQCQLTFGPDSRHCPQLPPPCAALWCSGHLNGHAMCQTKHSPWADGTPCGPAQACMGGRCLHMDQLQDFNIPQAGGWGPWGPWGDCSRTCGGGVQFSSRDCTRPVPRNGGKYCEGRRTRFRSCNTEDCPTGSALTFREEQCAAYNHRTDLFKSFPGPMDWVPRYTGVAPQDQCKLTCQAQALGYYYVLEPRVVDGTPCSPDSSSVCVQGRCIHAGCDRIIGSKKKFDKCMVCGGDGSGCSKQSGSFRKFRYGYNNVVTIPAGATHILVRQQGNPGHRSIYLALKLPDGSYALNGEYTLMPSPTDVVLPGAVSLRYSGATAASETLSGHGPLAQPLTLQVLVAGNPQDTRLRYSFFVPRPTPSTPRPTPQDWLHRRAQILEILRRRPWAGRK
Protocol: (§1) Human recombinant full-length FLAG-tagged ADAMTS4 and ADAMTS5 were expressed in HEK293T cells (Thermo Fisher Scientific) and purified by anti-FLAG immunoaffinity chromatography as before. Concentrations of active proteases were determined by active-site titrations with known concentrations of TIMP-3 (Bio-Techne, 973-TM-010), using QF peptides as substrates. V1-5GAG, a truncated version of versican V1 isoform comprising residues 21–694 and containing a C-terminal 6x His tag[67], was expressed in HE293T cells and purified by immobilized metal affinity chromatography as before.
(§2) QF peptide cleavage assays were conducted in TNC-B (50 mM Tris–HCl, pH 7.5, 150 mM NaCl, 10 mM CaCl2, and 0.02% NaN3) on a SpectraMax i3x Multi-Mode Platform (Molecular Devices, UK) in a total volume of 20 µl at 37℃ as before. ADAMTS4 (3.5 nM) or ADAMTS5 (4 nM) were incubated with compounds 1–4 (100 µM, diluted in TNC-B from 10 mM DMSO stocks) or DMSO for 1 h at 37 ℃ before addition of QF peptides fluorescein-5(6)-carbonyl-[…]N, N,N0,N0-tetramethyl-6-carboxyrhodamine, and fluorescein-5(6)-carbonyl-Thr-Glu-Ser-Glu - […]N, N,N0,N0-tetramethyl-6-carboxyrhodamine, respectively, each at 40 µM. Fluorescence intensity was recorded with an excitation wavelength of 485 nm and an emission wavelength of 535 nm every min for 2 h, expressed as relative fluorescence units and normalized against a blank containing only buffer and substrate. Fluorescence values were converted into residual activity by fixing as 100% the activity of the reactions containing an equal concentration (v/v) of DMSO instead of compound (DMSO control).

ADAMTS5 [2] = target: T2, ADAMTS5 (Homo sapiens, UniProt Q9UNA0); assay: QF peptide cleavage assay (peptidolytic activity); conditions: 100 µM; compared to DMSO control
T2 construct: Human recombinant full-length FLAG-tagged ADAMTS4 and ADAMTS5 were expressed in HEK293T cells; FLAG; made in house; host or cells: HEK293T cells
T2 sequence (Q9UNA0 262-930): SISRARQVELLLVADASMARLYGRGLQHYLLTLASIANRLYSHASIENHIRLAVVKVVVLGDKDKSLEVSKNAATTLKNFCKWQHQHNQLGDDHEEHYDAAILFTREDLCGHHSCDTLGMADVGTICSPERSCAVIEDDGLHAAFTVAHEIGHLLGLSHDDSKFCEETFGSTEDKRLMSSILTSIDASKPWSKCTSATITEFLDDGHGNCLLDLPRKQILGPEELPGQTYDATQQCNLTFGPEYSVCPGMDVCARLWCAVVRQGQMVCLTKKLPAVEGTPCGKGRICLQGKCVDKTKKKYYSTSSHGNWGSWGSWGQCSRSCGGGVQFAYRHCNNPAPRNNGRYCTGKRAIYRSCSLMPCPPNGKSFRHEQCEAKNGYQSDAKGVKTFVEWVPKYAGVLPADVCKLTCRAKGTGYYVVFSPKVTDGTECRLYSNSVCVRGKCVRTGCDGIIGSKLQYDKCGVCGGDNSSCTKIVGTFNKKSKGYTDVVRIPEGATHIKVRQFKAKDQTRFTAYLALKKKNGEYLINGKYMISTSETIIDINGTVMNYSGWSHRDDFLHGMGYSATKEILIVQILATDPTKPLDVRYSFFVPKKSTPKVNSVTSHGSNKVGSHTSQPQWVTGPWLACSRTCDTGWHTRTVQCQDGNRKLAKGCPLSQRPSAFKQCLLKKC
Protocol: as §1, §2

ADAMTS4 [3] = target: T1, ADAMTS4; assay: Versicanase assay (V1-5GAG, versikine sandwich ELISA); conditions: compared to DMSO control
Protocol: as §1
Compounds 1–4 (100 µM) or DMSO were incubated with ADAMTS4 (5 nM) or ADAMTS5 (0.4 nM) for 2 h at 37 °C, before addition of V1-5GAG (50 nM). At each time point, reactions were stopped by addition of ethylenediaminetetraacetic acid and ADAMTS-generated versican fragments (versikine) quantified by sandwich ELISA as before[29],[30],[38] using anti-DPEAAE neoepitope antibody (Life Technologies, PA1-1748 A, 5 µg/ml) and polyclonal anti-versican antibody (Abcam, ab171887, 3 µg/ml). For each reaction, the amount of versikine generated was derived from a standard curve (0–1.56 nM) of V1-5GAG completely digested with ADAMTS5. Initial velocities were calculated from the concentration of versikine generated as a function of reaction time. Percent of inhibition was calculated from the DMSO control reactions. IC50 values were determined using the formula: vi/v0 = 1/(1 + [I]/IC50) where vi is the initial velocity of substrate cleavage in the presence of the inhibitor at concentration [I] and v0 is the initial velocity in the presence of an equal concentration (v/v) of DMSO.

ADAMTS5 [4] = target: T2, ADAMTS5; assay: Aggrecanase assay (bovine aggrecan, anti-ARGSV neoepitope immunoblot); conditions: 100 µM
Protocol: Aggrecanase assays were carried out as before. ADAMTS5 (1 nM) was incubated with compounds 2 and 3 or DMSO for 2 h at 37 °C in TNC-B buffer before addition of bovine articular aggrecan (UniProt ID: P13608, 270 nM) (Merck, A1960). After 2 h digestion at 37 °C, the reactions were stopped with ethylenediaminetetraacetic acid and the samples incubated with 0.1 U/ml of chondroitinase ABC (AMS Biotechnology, Abingdon, UK) and keratanase (endo-beta galactosidase, Merck, G6920) in deglycosylation buffer (50 mM sodium acetate, 25 mM Tris HCl pH 8.0) for 16 h at 37 °C to remove GAG chains.
Samples were separated by SDS-PAGE under reducing conditions (5% β-mercaptoethanol) on BOLT, 4–12%, Bis-Tris Gels (Invitrogen) in MES Running Buffer (NuPAGE). Proteins were transferred onto a nitrocellulose membrane using Trans-Blot Turbo™ Transfer System (BioRad), at 25 V, 2.5 A for 30 min. Membranes were blocked with 3% BSA/PBS for 1 h at room temperature. Aggrecan fragments generated by ADAMTS cleavage at E^392-A^393[8] or E^1953-A^1954[68] were detected using mouse monoclonal anti-ARGSV antibody (BC3, Life Technologies, MA3-16888, 4 µg/ml) or polyclonal anti-AGEG neoepitope antibody (serum, 1:200 dilution)[12],[33], respectively, followed by the appropriate horseradish peroxidase (HRP)-conjugated secondary antibodies (polyclonal Goat Anti-Mouse P0447, 0.1 ng/µl and polyclonal Goat Anti-Rabbit, P0448, 0.03 ng/µl, both from Agilent Technologies LDA UK Ltd). All antibodies were diluted in 0.5% bovine serum albumin (BSA)/PBS. Washes between each step were carried out in triplicate, for 15 min each, with PBS-Tween (0.1%). Following addition of the chemiluminescent HRP substrate (Millipore, WBKL30500) membranes were imaged using Bio-Rad Chemidoc Touch Imaging System. Analysis was carried out using BioRad ImageLab software (version 5.2.1) using sequential exposures to avoid saturation artifacts. Figures for unprocessed blots are included in Supplementary information Fig. S4 and Fig. S5 with highlighted regions (in red boxes) corresponding to the data reported in the main manuscript figures.

inhibition at 100 µM (ADAMTS4 [1]): 48% | inhibition of ADAMTS5 peptidolytic activity (ADAMTS5 [2]): significant inhibition | inhibition at 100 µM (ADAMTS4 [3]): 42% | inhibition of ADAMTS5 aggrecanase activity (ADAMTS5 [4]): ineffective
Compound: CCC(C)N(Cc1cn(CCCO[C@@H]2O[C@H](CO[C@@H]3O[C@H](CO)[C@H](O)[C@H](O)[C@H]3O)[C@@H](O)[C@H](O)[C@H]2NC(C)=O)nn1)S(=O)(=O)c1ccc(-c2ccccc2)cc1 (stereo partly drawn) [compound 3, N-((2R,3R,4R,5 S,6R)-2-(3-(4-((N-(sec-butyl)-[1,1’-biphenyl]-4-sulfonamido)methyl)-1 H-1,2,3-triazol-1-yl)propoxy)-4,5-dihydroxy-6-((((2R,3R,4 S,5R,6R)-3,4,5-trihydroxy-6-(hydroxymethyl)tetrahydro-2 H-pyran-2-yl)oxy)methyl)tetrahydro-2 H-pyran-3-yl)acetamide]
